# In BindingDB's records for doi:10.1021/cb4002602 (National University of Singapore, 2013):
# Target: Protein disulfide-isomerase (Bos taurus) (UniProt P05307)
# Assay: The assay was carried out in 384-well plates according to literature procedures [46]. Each well contained 100mM sodium phosphate and 0.2mM EDTA pH 7.0. 10ng PDI was pre-incubated with various concentration of probes (4% DMSO) in 20uL buffer for 30 min at 37 degrees Celsius, followed by the addition of insulin (0.16mM final concentration) and DDT (1mM
# Sequence of Protein disulfide-isomerase (Bos taurus) (P05307 whole entry, looked up): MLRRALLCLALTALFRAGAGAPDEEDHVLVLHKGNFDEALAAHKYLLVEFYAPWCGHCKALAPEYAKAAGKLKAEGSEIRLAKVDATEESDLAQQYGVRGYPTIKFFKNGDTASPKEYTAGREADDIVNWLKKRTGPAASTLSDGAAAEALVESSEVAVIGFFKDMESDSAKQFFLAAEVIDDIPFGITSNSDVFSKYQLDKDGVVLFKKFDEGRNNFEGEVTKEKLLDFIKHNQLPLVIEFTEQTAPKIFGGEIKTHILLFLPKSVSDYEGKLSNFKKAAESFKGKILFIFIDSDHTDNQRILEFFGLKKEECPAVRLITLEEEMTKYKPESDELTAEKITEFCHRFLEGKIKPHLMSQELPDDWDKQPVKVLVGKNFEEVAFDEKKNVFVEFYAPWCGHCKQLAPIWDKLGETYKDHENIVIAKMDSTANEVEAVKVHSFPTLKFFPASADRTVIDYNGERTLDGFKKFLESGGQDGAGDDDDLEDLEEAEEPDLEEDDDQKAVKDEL
row,IC50,SMILES
1,3400 nM,C#CCNC(=O)[C@H](Cc1ccc(OS(=O)(=O)C=C)cc1)NC(=O)c1cc(OC)c(OC)cc1Br [PDI inhibitor P25]
2,1800 nM,C#CCCNC(=O)[C@H](Cc1cc(=O)oc2cc(OS(=O)(=O)C=C)ccc12)NC(=O)[C@H](Cc1ccccc1)NC(=O)OC(C)(C)C [PDI inhibitor P2]
3,1400 nM,C#CCNC(=O)[C@H](Cc1ccc(OS(=O)(=O)C=C)cc1)NC(=O)c1cc(F)c(F)c(OC)c1F [PDI inhibitor P22]
4,3100 nM,C#CCNC(=O)[C@H](Cc1ccc(OS(=O)(=O)C=C)cc1)NC(=O)c1ccc(C)cc1C [PDI inhibitor P7]
5,1100 nM,C#CCNC(=O)[C@H](Cc1ccc(OS(=O)(=O)C=C)cc1)NC(=O)c1ccc(CC)cc1 [PDI inhibitor P15]
6,2300 nM,C#CCNC(=O)[C@H](Cc1ccc(OS(=O)(=O)C=C)cc1)NC(=O)C1(C)CCCCC1 [PDI inhibitor P16]
7,1000 nM,C#CCNC(=O)[C@H](Cc1ccc(OS(=O)(=O)C=C)cc1)NC(=O)c1ccc(F)c(C(F)(F)F)c1 [PDI inhibitor P14]
8,5300 nM,C#CCNC(=O)[C@H](Cc1ccc(OS(=O)(=O)C=C)cc1)NC(=O)c1ccc(OC)cc1 [PDI inhibitor P9]
9,5700 nM,C#CCNC(=O)[C@H](Cc1ccc(OS(=O)(=O)C=C)cc1)NC(=O)C(Cl)CC (stereo partly drawn) [PDI inhibitor P20]
10,2500 nM,C#CCNC(=O)[C@H](Cc1ccc(OS(=O)(=O)C=C)cc1)NC(=O)c1c(F)c(F)c(F)c(F)c1F [PDI inhibitor P13]
11,3300 nM,C#CCNC(=O)[C@H](Cc1ccc(OS(=O)(=O)C=C)cc1)NC(=O)CCc1ccc(OC)cc1 [PDI inhibitor P17]
12,2700 nM,C#CCNC(=O)[C@H](Cc1ccc(OS(=O)(=O)C=C)cc1)NC(=O)c1ccc2ccccc2c1 [PDI inhibitor P8]
13,1100 nM,C=CS(=O)(=O)Oc1ccc(C[C@H](NC(=O)[C@H](Cc2ccccc2)NC(=O)OC(C)(C)C)C(=O)NCCNC(=O)CCCC[C@@H]2SCC3NC(=O)NC32)cc1 (stereo partly drawn) [PDI inhibitor P11]
14,2500 nM,C#CCNC(=O)[C@H](Cc1ccc(OS(=O)(=O)C=C)cc1)NC(=O)c1ccc(C)c(F)c1 [PDI inhibitor P21]
15,1800 nM,C#CCNC(=O)[C@H](Cc1ccc(OS(=O)(=O)C=C)cc1)NC(=O)C(=O)c1ccccc1 [PDI inhibitor P23]
16,1700 nM,C#CCCNC(=O)[C@H](Cc1ccc(OS(=O)(=O)C=C)cc1)NC(=O)[C@H](Cc1ccccc1)NC(=O)OC(C)(C)C [PDI inhibitor P1]
17,74000 nM,COC(=O)C1(C)c2[nH]c3ccccc3c2CCN1C(=O)CCl (stereo not drawn) [16F16]
18,2500 nM,C#CCNC(=O)[C@H](Cc1ccc(OS(=O)(=O)C=C)cc1)NC(=O)C1(C)CC1(Cl)Cl (stereo partly drawn) [PDI inhibitor P19]
19,2100 nM,C#CCNC(=O)[C@H](Cc1ccc(OS(=O)(=O)C=C)cc1)NC(=O)C1(c2ccccc2)CC1 [PDI inhibitor P10]
20,1900 nM,C#CCNC(=O)[C@H](Cc1ccc(OS(=O)(=O)C=C)cc1)NC(=O)[C@H](Cc1ccccc1)NC(=O)OC(C)(C)C [PDI inhibitor P6]
21,2800 nM,C#CCNC(=O)[C@H](Cc1ccc(OS(=O)(=O)C=C)cc1)NC(=O)c1ccc(F)cc1Cl [PDI inhibitor P18]
22,2200 nM,C#CCNC(=O)[C@H](Cc1ccc(OS(=O)(=O)C=C)cc1)NC(=O)CCc1ccccc1 [PDI inhibitor P24]
23,3200 nM,C#CCNC(=O)[C@H](Cc1ccc(OS(=O)(=O)C=C)cc1)NC(=O)C(C)(C)CC [PDI inhibitor P12]
